The source of these data is patent US20070249620A1, “Urea Derivative” (priority 2004, published 2007).

In data set [1] the target is T1, mouse DGAT1 (Mus musculus, UniProt Q9Z2A7).
T1 construct: made in house; host or cells: insect cells (High Five, Sf9, Sf21, etc.), baculovirus expression system (Invitrogen)
T1 sequence (Q9Z2A7 1-498): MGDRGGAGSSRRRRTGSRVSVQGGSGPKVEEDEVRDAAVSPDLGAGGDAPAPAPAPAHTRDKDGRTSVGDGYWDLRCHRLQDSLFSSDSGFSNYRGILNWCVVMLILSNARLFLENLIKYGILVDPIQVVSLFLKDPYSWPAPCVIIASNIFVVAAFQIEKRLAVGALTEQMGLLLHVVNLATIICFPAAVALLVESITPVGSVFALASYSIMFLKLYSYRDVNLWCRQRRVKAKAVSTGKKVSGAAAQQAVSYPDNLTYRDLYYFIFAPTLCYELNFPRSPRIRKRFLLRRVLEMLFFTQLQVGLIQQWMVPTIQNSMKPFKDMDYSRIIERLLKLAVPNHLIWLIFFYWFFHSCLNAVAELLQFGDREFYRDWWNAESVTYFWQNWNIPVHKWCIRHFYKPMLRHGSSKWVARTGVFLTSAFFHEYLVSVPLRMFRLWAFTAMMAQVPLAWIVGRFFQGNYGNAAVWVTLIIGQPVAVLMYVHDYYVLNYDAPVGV
The data set can be described thus: DGAT1 inhibitory effect test (microsome fraction, [14C]-oleoyl-CoA, triglyceride radioactivity by TLC). Conditions: 0.5 h; concentration of the test compound 0.1 μg/ml; mouse DGAT1 microsomes, 23° C., 30 minutes; read-out: Inhibitory ratio. It counts as biochemical. The procedure:
The cDNA which encodes mouse DGAT1 was cloned from a mouse cDNA library by polymerase chain reaction (hereinafter referred to as “PCR”) and introduced into an insect cell virus vector (baculovirus expression system, Invitrogen). After insect cells (High Five, Sf9, Sf21, etc., Invitrogen) were infected with the virus, the cells were collected in buffer A [0.1M sucrose, 50 mM KCl, 40 mM potassium phosphate (pH 7.4), 30 mM EDTA, 1% Protease inhibitor cocktail (SIGMA, P-8340)] and crushed with a Polytron homogenizer. The supernatant obtained by subjecting the homogenate to low speed centrifugal processing (10,000 ×g, 30 minutes) was further subjected to higher-speed centrifugal processing (100,000 ×g, 60 minutes) and the precipitate was resuspended in buffer A as the microsome fraction and used as DGAT1 enzyme. The DGAT1 enzyme was divided into small volumes and stored at −80° C.
(2) DGAT1 Inhibitory Effect Test
The reaction liquid of the following composition [175 mM Tris-HCl (pH 8.0), 8 mM MgCl2, 1 mg/ml BSA, 0.5 mM 1,2-dioleoyl-sn-glycerol (EtOH solution of 10-fold concentration, 10% added), 30 μM[14C]-oleoyl-CoA (about 50 mCi/mmol), 0.5% triton X-100, DGAT1 enzyme (10 μg) obtained in Test Example 1(1), test compound or vehicle (DMSO/MeOH, 7:3 solution, 5% added), total volume 50 μl] was incubated at room temperature (23° C.) for 30 minutes. A reaction terminating solution (70 μl) consisting of isopropanol/1-heptane/water (80:20:2, v/v/v) was added to the reaction solution and stirred, and subsequently stirred with water (30 μl) and 1-heptane (100 μl). The 1-heptane layer (50 μl) was spotted onto a TLC plate and developed with a developing solvent consisting of 1-hexane/diethyl ether/acetic acid (85:15:1, v/v/v). Radioactivity of triglyceride fraction was quantified by BAS2000 bio image analyzer (Fuji Film) and the inhibitory effect of the test compounds was calculated by the following formula through comparison with control. Here, radioactivity at no reaction (0 minutes incubation) was assumed as background. Inhibitory ratio=100−[(Radioactivity when test compound was added)−(Background)]/[(Radioactivity by control)−(Background)]×100

Broadly, the melting point is the temperature, or range, at which the solid turns liquid. Molecule `CCCCc1ccc(NC(=O)N2CCN(c3ccc(NC(=O)Nc4cc(C)ccc4OC)cc3)CC2)c(C)c1` [Example 75, 4-{4-[3-(2-methoxy-5-methyl-phenyl)-ureido]-phenyl}-piperazine-1-carboxylic acid (4-butyl-2-methyl-phenyl)-amide] returned a melting point of 172 to 173 °C. In addition, in data set [1], the inhibition at 0.1 µg/mL was not below 50%.

For the molecule `COc1ccc(C)cc1NC(=O)Nc1ccc(N2CCN(C(=O)Nc3ccc(C)cc3Cl)CC2)cc1` [Example 76, 4-{4-[3-(2-methoxy-5-methyl-phenyl)-ureido]-phenyl}-piperazine-1-carboxylic acid (2-chloro-4-methyl-phenyl)-amide], the melting point fell in the range of 186 to 187 °C. The inhibition at 0.1 µg/mL in data set [1] is not below 50%.

For the molecule `COc1ccc(Cl)cc1NC(=O)Nc1ccc(N2CCN(C(=O)Nc3c(F)cccc3F)CC2)cc1` [Example 77, 4-{4-[3-(5-chloro-2-methoxy-phenyl)-ureido]-phenyl}-piperazine-1-carboxylic acid (2,6-difluoro-phenyl)-amide], the melting point was 230 to 232 °C. Further, the inhibition at 0.1 µg/mL in data set [1] was not below 50%.

Turning to `COc1ccc(Cl)cc1NC(=O)Nc1ccc(N2CCN(C(=O)Nc3ccccc3Cl)CC2)cc1` [Example 78, 4-{4-[3-(5-chloro-2-methoxy-phenyl)-ureido]-phenyl}-piperazine-1-carboxylic acid (2-chloro-phenyl)-amide], the melting point lay in the range of 231 to 233 °C. In addition, in data set [1], the inhibition at 0.1 µg/mL is not below 50%.

`COc1ccc(Cl)cc1NC(=O)Nc1ccc(N2CCN(C(=O)Nc3c(C)cccc3Cl)CC2)cc1` [Example 79, 4-{4-[3-(5-chloro-2-methoxy-phenyl)-ureido]-phenyl}-piperazine-1-carboxylic acid (2-chloro-6-methyl-phenyl)-amide] returned a melting point of 225 to 227 °C. Moreover, the inhibition at 0.1 µg/mL in data set [1] is not below 50%.

For the molecule `CCOc1ccccc1NC(=O)Nc1ccc(N2CCN(C(=O)Nc3ccccc3C(F)(F)F)CC2)cc1` [Example 80, 4-{4-[3-(2-ethoxy-phenyl)-ureido]-phenyl}-piperazine-1-carboxylic acid (2-trifluoromethyl-phenyl)-amide], the melting point lay within 201 to 203 °C. Besides, the inhibition at 0.1 µg/mL in data set [1] was not below 50%.

Take `CCOc1ccccc1NC(=O)Nc1ccc(N2CCN(C(=O)Nc3ccccc3C)CC2)cc1` [Example 81, 4-{4-[3-(2-ethoxy-phenyl)-ureido]-phenyl}-piperazine-1-carboxylic acid o-tolylamide]: the melting point was 206 to 208 °C. Also, the inhibition at 0.1 µg/mL in data set [1] was not below 50%.

The molecule `CCOc1ccccc1NC(=O)Nc1ccc(N2CCN(C(=O)Nc3c(C)cccc3Cl)CC2)cc1` [Example 82, 4-{4-[3-(2-ethoxy-phenyl)-ureido]-phenyl}-piperazine-1-carboxylic acid (2-chloro-6-methyl-phenyl)-amide] displayed a melting point of 215 to 217 °C. Besides, the inhibition at 0.1 µg/mL in data set [1] is not below 50%.

`CCOc1ccc(C)cc1NC(=O)Nc1ccc(N2CCN(C(=O)Nc3ccccc3C(F)(F)F)CC2)cc1` [Example 83, 4-{4-[3-(2-ethoxy-5-methyl-phenyl)-ureido]-phenyl}-piperazine-1-carboxylic acid (2-trifluoromethyl-phenyl)-amide] had a melting point of 219 to 220 °C. In data set [1], the inhibition at 0.1 µg/mL was not below 50%.

With `CCOc1ccc(C)cc1NC(=O)Nc1ccc(N2CCN(C(=O)Nc3ccccc3C)CC2)cc1` [Example 84, 4-{4-[3-(2-ethoxy-5-methyl-phenyl)-ureido]-phenyl}-piperazine-1-carboxylic acid o-tolylamide], the melting point was in the range of 190 to 192 °C. For the same molecule, the inhibition at 0.1 µg/mL in data set [1] was not below 50%.

As for `CCOc1ccc(C)cc1NC(=O)Nc1ccc(N2CCN(C(=O)Nc3c(C)cccc3Cl)CC2)cc1` [Example 85, 4-{4-[3-(2-ethoxy-5-methyl-phenyl)-ureido]-phenyl}-piperazine-1-carboxylic acid (2-chloro-6-methyl-phenyl)-amide], the melting point lay within 157 to 159 °C. For the same molecule, the inhibition at 0.1 µg/mL in data set [1] is not below 50%.

As for `COc1ccc(C)cc1NC(=O)Nc1ccc(N2CCN(C(=O)Nc3ccc(Cl)cc3C(F)(F)F)CC2)cc1` [Example 86, 4-{4-[3-(2-methoxy-5-methyl-phenyl)-ureido]-phenyl}-piperazine-1-carboxylic acid (4-chloro-2-trifluoromethyl-phenyl)-amide], the melting point fell in the range of 186 to 187 °C. Also, the inhibition at 0.1 µg/mL in data set [1] was not below 50%.

Regarding `COc1ccc(C)cc1NC(=O)Nc1ccc(N2CCN(C(=O)Nc3ccc(F)cc3C(F)(F)F)CC2)cc1` [Example 87, 4-{4-[3-(2-methoxy-5-methyl-phenyl)-ureido]-phenyl}-piperazine-1-carboxylic acid (4-fluoro-2-trifluoromethyl-phenyl)-amide], the melting point lay in the range of 172 to 174 °C. Also, the inhibition at 0.1 µg/mL in data set [1] is not below 50%.

Molecule `COc1ccc(C)cc1NC(=O)Nc1ccc(N2CCN(C(=O)Nc3c(C)cc(C)cc3C)CC2)cc1` [Example 88, 4-{4-[3-(2-methoxy-5-methyl-phenyl)-ureido]-phenyl}-piperazine-1-carboxylic acid (2,4,6-trimethyl-phenyl)-amide] showed a melting point of 215 to 217 °C. Besides, the inhibition at 0.1 µg/mL in data set [1] is not below 50%.

`CCOc1ccc(F)cc1NC(=O)Nc1ccc(N2CCN(C(=O)Nc3ccccc3C(F)(F)F)CC2)cc1` [Example 89, 4-{4-[3-(2-ethoxy-5-fluoro-phenyl)-ureido]-phenyl}-piperazine-1-carboxylic acid (2-trifluoromethyl-phenyl)-amide] gave a melting point of 197 to 199 °C. In addition, the inhibition at 0.1 µg/mL in data set [1] was not below 50%.

Consider `CCOc1ccc(F)cc1NC(=O)Nc1ccc(N2CCN(C(=O)Nc3ccccc3C)CC2)cc1` [Example 90, 4-{4-[3-(2-ethoxy-5-fluoro-phenyl)-ureido]-phenyl}-piperazine-1-carboxylic acid o-tolylamide], for which the melting point was 186 to 187 °C. Moreover, the inhibition at 0.1 µg/mL in data set [1] was not below 50%.

For the molecule `CCOc1ccc(F)cc1NC(=O)Nc1ccc(N2CCN(C(=O)Nc3c(C)cccc3Cl)CC2)cc1` [Example 91, 4-{4-[3-(2-ethoxy-5-fluoro-phenyl)-ureido]-phenyl}-piperazine-1-carboxylic acid (2-chloro-6-methyl-phenyl)-amide], the melting point lay within 197 to 199 °C. Besides, in data set [1], the inhibition at 0.1 µg/mL was not below 50%.

In turn, `CCOc1ccc(F)cc1NC(=O)Nc1ccc(N2CCN(C(=O)Nc3c(C)cccc3C)CC2)cc1` [Example 92, 4-{4-[3-(2-ethoxy-5-fluoro-phenyl)-ureido]-phenyl}-piperazine-1-carboxylic acid (2,6-dimethyl-phenyl)-amide] came in with a melting point of 205 to 206 °C. Further, the inhibition at 0.1 µg/mL in data set [1] was not below 50%.

As for `CCOc1ccc(F)cc1NC(=O)Nc1ccc(N2CCN(C(=O)Nc3c(F)cccc3C(F)(F)F)CC2)cc1` [Example 93, 4-{4-[3-(2-ethoxy-5-fluoro-phenyl)-ureido]-phenyl}-piperazine-1-carboxylic acid (2-fluoro-6-trifluoromethyl-phenyl)-amide], the melting point was 153 to 155 °C. Further, in data set [1], the inhibition at 0.1 µg/mL was not below 50%.

Molecule `CCOc1ccc(F)cc1NC(=O)Nc1ccc(N2CCN(C(=O)Nc3c(Cl)cccc3Cl)CC2)cc1` [Example 94, 4-{4-[3-(2-ethoxy-5-fluoro-phenyl)-ureido]-phenyl}-piperazine-1-carboxylic acid (2,6-dichloro-phenyl)-amide] yielded a melting point of 212 to 214 °C. Also, the inhibition at 0.1 µg/mL in data set [1] was not below 50%.
